Experimental findings from ChEMBL document CHEMBL1145378 (J Med Chem, 2007) are described below.

pKi: −log10 of the molar value.

The target in data set [1] is Voltage-gated inwardly rectifying potassium channel KCNH2 (Homo sapiens, UniProt Q12809).
Another data set deals with hERG (KCNH2) (Homo sapiens, UniProt Q12809). The data set is described as follows: in vitro. The note with it: HEK293 cells that express hERG. On the technique in general: The hERG channel carries a current that helps repolarise heart muscle cells.
Sequence of hERG (KCNH2) (Q12809 whole entry): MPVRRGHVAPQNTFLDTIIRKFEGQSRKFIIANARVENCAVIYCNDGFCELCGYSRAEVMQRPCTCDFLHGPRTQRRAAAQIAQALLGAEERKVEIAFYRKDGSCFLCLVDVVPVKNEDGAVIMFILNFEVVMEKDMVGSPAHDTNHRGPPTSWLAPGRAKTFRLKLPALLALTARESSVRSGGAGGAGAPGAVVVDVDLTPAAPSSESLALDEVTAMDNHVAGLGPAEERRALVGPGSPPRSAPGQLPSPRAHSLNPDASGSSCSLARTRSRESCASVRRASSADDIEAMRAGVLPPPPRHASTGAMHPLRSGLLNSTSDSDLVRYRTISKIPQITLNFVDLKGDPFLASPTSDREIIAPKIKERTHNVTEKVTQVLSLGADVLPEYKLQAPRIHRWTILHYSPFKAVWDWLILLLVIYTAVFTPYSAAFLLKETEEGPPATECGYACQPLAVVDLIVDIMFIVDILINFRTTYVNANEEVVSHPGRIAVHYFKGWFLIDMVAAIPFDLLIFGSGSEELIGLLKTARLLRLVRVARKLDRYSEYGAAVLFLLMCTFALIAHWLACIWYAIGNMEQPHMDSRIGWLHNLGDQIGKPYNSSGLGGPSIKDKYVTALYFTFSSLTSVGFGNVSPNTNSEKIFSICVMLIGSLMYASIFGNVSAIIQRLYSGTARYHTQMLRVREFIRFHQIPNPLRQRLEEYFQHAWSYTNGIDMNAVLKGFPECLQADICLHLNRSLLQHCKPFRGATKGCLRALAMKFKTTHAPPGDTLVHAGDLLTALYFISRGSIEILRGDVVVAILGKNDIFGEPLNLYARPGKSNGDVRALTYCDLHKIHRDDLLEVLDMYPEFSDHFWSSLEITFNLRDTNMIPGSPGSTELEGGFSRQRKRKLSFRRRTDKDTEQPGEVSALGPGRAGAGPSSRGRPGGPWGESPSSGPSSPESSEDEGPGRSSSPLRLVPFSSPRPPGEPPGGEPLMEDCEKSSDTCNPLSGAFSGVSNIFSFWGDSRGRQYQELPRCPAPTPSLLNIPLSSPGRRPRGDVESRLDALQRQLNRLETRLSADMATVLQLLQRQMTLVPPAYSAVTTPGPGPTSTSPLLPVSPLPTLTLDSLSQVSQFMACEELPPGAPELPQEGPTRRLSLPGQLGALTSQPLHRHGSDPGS
Data set [2] is described as follows: Permeability from basolateral to apical side of the Caco-2 cell membrane. The format is ADME, cell-based. The note with it: human. A general note: Passage across Caco-2 layers is used to estimate intestinal permeability.
Data set [3] can be described thus: Permeability from apical to basolateral side of the Caco-2 cell membrane. It counts as ADME, cell-based. The note with it: human.

One may read the pKi as the Ki on a negative log10 scale, so that one unit is a factor of ten. A lower pKi goes with a large Ki. What is called inhibition is the share of the control response that was lost under treatment. Lower therefore signals a weak effect. What is called Papp B→A is how fast a substance crosses the layer from the basolateral side. For orientation: Papp A→B means how fast a substance crosses the layer from the apical side. A lower Papp A→B goes with poor permeation.

Sequence of Voltage-gated inwardly rectifying potassium channel KCNH2 (Q12809 whole entry): as above

In turn, `CCN1CCCc2cc3c(cc21)OC1=CC2=[N+](CCCC(=O)N(CCOc4ccc(NS(C)(=O)=O)cc4)CCc4ccc(NS(C)(=O)=O)cc4)CCCC2=CC1N3` (configuration not stated) gave a pKi in data set [1] of 8.44.

In turn, `CC1(C)C2=C3C=C4C5=[N+](CCC4OC3CCN2c2ccc(CC(=O)NCCCCN(CCOc3ccc(NS(C)(=O)=O)cc3)CCc3ccc(NS(C)(=O)=O)cc3)cc21)c1ccc(S(=O)(=O)[O-])cc1C5(C)C` (configuration not stated) had a pKi in data set [1] of 7.74.

Consider `CC1(C)C2=C3C=C4C5=[N+](CCC4OC3CCN2c2ccc(CCC(=O)NCCCCCCN(CCOc3ccc(NS(C)(=O)=O)cc3)CCc3ccc(NS(C)(=O)=O)cc3)cc21)c1ccc(S(=O)(=O)[O-])cc1C5(C)C` (configuration not stated), for which, in data set [1], the pKi was 7.72.

The molecule `CN(C)c1ccc2c(c1)Oc1cc(N(C)C)ccc1C21OC(=O)c2cc(C(=O)NCCCCCCN(CCOc3ccc(NS(C)(=O)=O)cc3)CCc3ccc(NS(C)(=O)=O)cc3)ccc21` gave a pKi in data set [1] of 7.05.

For `CS(=O)(=O)Nc1ccc(CCN(CCOc2ccc(NS(C)(=O)=O)cc2)C(=O)c2ccc3c(c2)C(=O)OC32c3ccc(O)cc3Oc3cc(O)ccc32)cc1`, the pKi in data set [1] is 6.01.

In the case of `CS(=O)(=O)Nc1ccc(CCN(CCCCCCNC(=O)c2ccc3c(c2)C(=O)OC32c3ccc(O)cc3Oc3cc(O)ccc32)CCOc2ccc(NS(C)(=O)=O)cc2)cc1`, the pKi in data set [1] is 7.82.

With `CC1(C)C2=C3C=C4C5=[N+](CCC4OC3CCN2c2ccc(CCCCCC(=O)NCCCCCCN(CCOc3ccc(NS(C)(=O)=O)cc3)CCc3ccc(NS(C)(=O)=O)cc3)cc21)c1ccc(S(=O)(=O)[O-])cc1C5(C)C` (configuration not stated), the pKi in data set [1] was 8.00.

In data set [1], `CC1(C)C2=C3C=C4C5=[N+](CCC4OC3CCN2c2ccc(CC(=O)NCCN(CCOc3ccc(NS(C)(=O)=O)cc3)CCc3ccc(NS(C)(=O)=O)cc3)cc21)c1ccc(S(=O)(=O)[O-])cc1C5(C)C` (configuration not stated) had a pKi of 5.14.

In turn, `CN(C)c1ccc2c(c1)Oc1cc(N(C)C)ccc1C21OC(=O)c2cc(C(=O)N(CCOc3ccc(NS(C)(=O)=O)cc3)CCc3ccc(NS(C)(=O)=O)cc3)ccc21` gave a pKi in data set [1] below 6.00.

In the case of `CCNC(=O)Cc1ccc2c(c1)C(C)(C)C1C3C=C4C5=[N+](CCC4OC3CCN21)c1ccc(S(=O)(=O)[O-])cc1C5(C)C` (configuration not stated), in data set [1], the pKi was below 6.00.

In turn, `CN(CCOc1ccc(NS(C)(=O)=O)cc1)CCc1ccc(NS(C)(=O)=O)cc1` [DOFETILIDE] registered an inhibition at 0.025 µM against hERG (KCNH2) of 80%. For the same molecule, the Papp B→A in data set [2] was determined as 14.3 ×10⁻⁶ cm/s. This molecule also gave a Papp A→B in data set [3] of 15.7 ×10⁻⁶ cm/s.

In data set [2], `CS(=O)(=O)Nc1ccc(CCN(CCOc2ccc(NS(C)(=O)=O)cc2)c2ccc([N+](=O)[O-])c3nonc23)cc1` came in with a Papp B→A of 18 ×10⁻⁶ cm/s. Moreover, the Papp A→B in data set [3] was 3.7 ×10⁻⁶ cm/s.

Regarding `CC1(C)C2=C3C=C4C5=[N+](CCC4OC3CCN2c2ccc(CC(=O)NCCCCCN(CCOc3ccc(NS(C)(=O)=O)cc3)CCc3ccc(NS(C)(=O)=O)cc3)cc21)c1ccc(S(=O)(=O)[O-])cc1C5(C)C` (configuration not stated), the pKi in data set [1] is 7.89.

Consider `CC1(C)C2=C3C=C4C5=[N+](CCC4OC3CCN2c2ccc(CC(=O)NCCCN(CCOc3ccc(NS(C)(=O)=O)cc3)CCc3ccc(NS(C)(=O)=O)cc3)cc21)c1ccc(S(=O)(=O)[O-])cc1C5(C)C` (configuration not stated), for which, in data set [1], the pKi is 6.80.
